Source: patent US20240208937A1, “Compounds and Their Use for Treatment of Hemoglobinopathies” (Bristol-Myers Squibb Company, priority 2022, published 2024)

How the values were obtained:
Type in all cases: cell-based
[1] = system: fetal hemoglobin (HbF) in GCSF-mobilized human CD34+ cells; test: HbF Induction Assay; conditions: 168 h; compound 1 μM, 7 days, erythroid-differentiated human CD34+ cells, flow cytometry; DMSO baseline 15% HbF positive cells
Protocol: The expansion, differentiation, and maturation of GCSF-mobilized human CD34^+ (STEMCELL Technologies Inc.) cells towards erythroid lineage cells were performed using a two-phase liquid culture model (Moutouh-de Parseval L A, el al. Pomalidomide and lenalidomide regulate erythropoiesis and fetal hemoglobin production in human CD34+ cells. J Clin Invest. 2008 January; 118(1):248-58). In the first phase, GCSF-mobilized human CD34^+ cells were cultured using StemSpan™-XF (STEMCELL Technologies Inc.) media supplemented with 1×BIT 9500, Penicillin-Streptomycin (50 U/mL), 100 ng/mL recombinant human (rh) SCF, 100 ng/mL rh Flt3-L, 20 ng/mL rh IL-3 and 10 ng/mL rh EPO and the growth of cells maintained in exponential phase for 7 days at 37° C. with 5% CO2 to support expansion and progenitor differentiation prior the second phase and treatment with compounds. In the second phase, culture media was changed to StemSpan™-XF media supplemented with 1×BIT 9500, Penicillin-Streptomycin (50 U/mL), 50 ng/mL rh SCF and 40 ng/mL rh EPO to promote further differentiation and maturation of the erythrocytes and to initiate treatment with compounds. Compounds were dispensed in duplicate at a final concentration of 1 μM in a final DMSO amount of 0.1%. Fresh compound was reapplied, and cell density was kept constant every 2 days. After 7 days, the cells were assessed for viability and fetal hemoglobin expression using flow cytometry. For viability analysis, eBioscience™ Fixable Viability Dye eFluor™ 780 (1:1000, eBioscience; Cat #65-0865-14) was added to the cells and kept in the dark for 10 minutes. For analysis of fetal hemoglobin (HbF), cells were fixed and permeabilized using Fixation Buffer (BioLegend; Cat #420801 and Intracellular staining permeabilization buffer (BioLegend, Cat #420201) following manufacturer's instructions. During permeabilization step, cells were stained with PE-labelled Mouse Anti-Human Fetal Hemoglobin (1:10, clone 2D12; BD Biosciences, Cat #BDB560041) incubated at room temperature for 20 minutes and protected from light. PE-labelled Mouse anti-IgG k, (1:10 clone MOPC-21; BD Biosciences, Cat# BDB551436) was used as an isotype control.
Viability, cell count, and fetal hemoglobin (HbF) levels were measured using an Attune NXT flow cytometer (Thermofisher) and the data analyzed using the FCS express software (De Novo Software). In Table 1 below, the effects of compounds of formula (I), formula (I′), formula (II), formula (II′), and formula (III) on % viable cells, viable cell count, on the % HbF positive cells and the median fluorescent intensity (MFI) of the HbF positive cell population compared to the DMSO controls can be viewed. All gates were set using the isotype negative control. The baseline % HbF positive cells for DMSO-treated control cells was 15%. Compounds of formula (I), formula (I′), formula (II), formula (II′), and formula (III) having HbF induction between 66% and 100% are level A. Compounds of formula (I), formula (I′), formula (II), formula (II′), and formula (III) having HbF induction between 33% and 66% are level B. Compounds of formula (I), formula (I′), formula (II), formula (II′), and formula (III) having HbF induction % less than 33% are level C. For certain compounds of formula (I), formula (I′), formula (II), formula (II′), and formula (III) % HbF induction values 0-33% (activity level C), between 33% and 66% (activity level B), and between 67% and 100% (activity level A) are shown in Table 2 below.

[2] = molecular target: WIZ (Widely interspaced zinc finger) (Homo sapiens (Human), UniProt O95785+Q96SW2); test: HUDEP-2 WIZ HiBiT degradation assay; conditions: HUDEP-2 WIZ HiBiT cells, 24 hours treatment, luminescence; for DC50: read-out: WIZ EC50
WIZ (Widely interspaced zinc finger), sequence (O95785 whole entry, the tested form may be a part): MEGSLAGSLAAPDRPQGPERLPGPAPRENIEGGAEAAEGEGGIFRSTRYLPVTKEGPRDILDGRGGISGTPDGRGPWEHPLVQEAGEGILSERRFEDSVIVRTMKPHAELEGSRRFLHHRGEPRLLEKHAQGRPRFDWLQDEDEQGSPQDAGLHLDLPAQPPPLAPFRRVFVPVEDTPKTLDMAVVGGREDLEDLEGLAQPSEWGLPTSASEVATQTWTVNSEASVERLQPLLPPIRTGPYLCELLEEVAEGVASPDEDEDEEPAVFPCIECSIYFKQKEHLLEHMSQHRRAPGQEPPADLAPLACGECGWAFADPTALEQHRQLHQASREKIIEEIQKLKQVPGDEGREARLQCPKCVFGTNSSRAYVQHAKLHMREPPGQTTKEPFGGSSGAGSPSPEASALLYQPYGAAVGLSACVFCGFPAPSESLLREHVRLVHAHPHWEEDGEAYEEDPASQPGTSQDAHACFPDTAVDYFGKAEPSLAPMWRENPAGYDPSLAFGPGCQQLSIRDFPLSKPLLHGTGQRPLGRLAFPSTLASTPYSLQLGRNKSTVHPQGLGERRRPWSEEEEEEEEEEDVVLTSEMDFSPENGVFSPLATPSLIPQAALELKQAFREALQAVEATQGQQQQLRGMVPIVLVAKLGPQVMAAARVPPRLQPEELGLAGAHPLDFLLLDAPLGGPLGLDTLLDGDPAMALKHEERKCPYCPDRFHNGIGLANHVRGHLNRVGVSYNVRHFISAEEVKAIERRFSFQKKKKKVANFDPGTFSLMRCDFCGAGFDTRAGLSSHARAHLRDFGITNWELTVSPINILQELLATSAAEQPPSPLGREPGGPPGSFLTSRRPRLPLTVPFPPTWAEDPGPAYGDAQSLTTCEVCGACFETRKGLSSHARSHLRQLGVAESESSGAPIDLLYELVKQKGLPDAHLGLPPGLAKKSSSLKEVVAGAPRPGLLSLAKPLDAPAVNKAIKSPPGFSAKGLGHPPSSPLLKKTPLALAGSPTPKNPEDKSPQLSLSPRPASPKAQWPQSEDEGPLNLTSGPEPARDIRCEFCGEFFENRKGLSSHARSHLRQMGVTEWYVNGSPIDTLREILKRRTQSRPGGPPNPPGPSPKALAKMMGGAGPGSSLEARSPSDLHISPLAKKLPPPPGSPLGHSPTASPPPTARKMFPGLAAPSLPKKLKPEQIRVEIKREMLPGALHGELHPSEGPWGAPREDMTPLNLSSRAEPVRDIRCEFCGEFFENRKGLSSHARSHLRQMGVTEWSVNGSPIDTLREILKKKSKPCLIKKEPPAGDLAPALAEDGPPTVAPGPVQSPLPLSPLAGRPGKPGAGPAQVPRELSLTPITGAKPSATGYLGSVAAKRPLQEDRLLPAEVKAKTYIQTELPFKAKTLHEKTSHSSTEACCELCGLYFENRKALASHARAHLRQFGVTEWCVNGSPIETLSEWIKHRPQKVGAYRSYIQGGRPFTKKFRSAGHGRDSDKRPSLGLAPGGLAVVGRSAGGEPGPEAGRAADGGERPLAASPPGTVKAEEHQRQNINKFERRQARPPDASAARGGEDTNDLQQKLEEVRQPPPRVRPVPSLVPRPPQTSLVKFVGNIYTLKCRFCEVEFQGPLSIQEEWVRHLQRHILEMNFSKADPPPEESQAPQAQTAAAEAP
WIZ (Widely interspaced zinc finger), sequence (Q96SW2 whole entry, the tested form may be a part): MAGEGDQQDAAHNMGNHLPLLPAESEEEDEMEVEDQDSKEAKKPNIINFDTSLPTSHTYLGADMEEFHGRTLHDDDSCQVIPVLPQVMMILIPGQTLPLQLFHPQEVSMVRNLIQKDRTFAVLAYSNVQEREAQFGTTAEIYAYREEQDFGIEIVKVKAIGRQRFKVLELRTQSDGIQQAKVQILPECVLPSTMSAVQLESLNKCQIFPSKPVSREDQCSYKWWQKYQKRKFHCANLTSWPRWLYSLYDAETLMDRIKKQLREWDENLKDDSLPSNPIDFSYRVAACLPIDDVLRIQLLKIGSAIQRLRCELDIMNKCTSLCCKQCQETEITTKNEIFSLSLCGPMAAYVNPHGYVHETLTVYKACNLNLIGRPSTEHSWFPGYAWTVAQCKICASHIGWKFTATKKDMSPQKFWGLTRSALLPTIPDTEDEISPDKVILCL
WIZ (Widely interspaced zinc finger), sequence (Q16531 whole entry partner, the tested form may be a part): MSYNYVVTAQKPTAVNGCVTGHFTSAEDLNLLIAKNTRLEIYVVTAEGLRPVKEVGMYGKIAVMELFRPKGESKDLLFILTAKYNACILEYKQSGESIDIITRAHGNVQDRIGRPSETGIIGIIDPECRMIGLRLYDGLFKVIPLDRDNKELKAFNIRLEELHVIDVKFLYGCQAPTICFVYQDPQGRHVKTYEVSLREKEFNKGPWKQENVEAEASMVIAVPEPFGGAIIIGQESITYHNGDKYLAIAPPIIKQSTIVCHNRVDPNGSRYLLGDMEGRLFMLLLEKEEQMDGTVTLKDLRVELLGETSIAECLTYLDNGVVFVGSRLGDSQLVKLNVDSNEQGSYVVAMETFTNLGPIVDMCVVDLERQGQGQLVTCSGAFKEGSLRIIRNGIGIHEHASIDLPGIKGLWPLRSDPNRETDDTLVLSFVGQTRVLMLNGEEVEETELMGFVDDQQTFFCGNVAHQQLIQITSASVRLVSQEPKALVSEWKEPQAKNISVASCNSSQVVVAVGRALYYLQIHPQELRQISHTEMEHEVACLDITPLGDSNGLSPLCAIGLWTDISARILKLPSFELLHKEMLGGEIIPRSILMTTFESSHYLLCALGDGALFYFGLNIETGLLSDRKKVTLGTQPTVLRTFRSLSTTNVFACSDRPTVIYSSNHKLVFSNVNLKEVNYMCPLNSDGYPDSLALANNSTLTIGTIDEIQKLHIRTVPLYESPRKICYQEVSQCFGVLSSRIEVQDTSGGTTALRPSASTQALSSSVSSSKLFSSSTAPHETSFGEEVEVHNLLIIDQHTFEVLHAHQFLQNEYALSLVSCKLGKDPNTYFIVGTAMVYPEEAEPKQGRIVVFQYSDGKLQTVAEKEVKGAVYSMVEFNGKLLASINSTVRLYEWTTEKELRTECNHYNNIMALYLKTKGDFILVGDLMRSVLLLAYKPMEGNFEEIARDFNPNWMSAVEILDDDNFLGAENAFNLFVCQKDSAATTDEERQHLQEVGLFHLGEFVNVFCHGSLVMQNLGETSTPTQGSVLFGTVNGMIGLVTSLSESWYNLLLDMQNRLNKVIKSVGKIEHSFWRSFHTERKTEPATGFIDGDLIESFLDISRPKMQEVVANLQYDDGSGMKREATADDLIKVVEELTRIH
Protocol: (§1) The HiBiT degradation assay for WIZ and ZBTB7A in HUDEP-2 cells was performed as described below. HUDEP-2 cells engineered to express a HiBiT tag in either the WIZ (Widely interspaced zinc finger) or ZBTB7A (Zinc Finger And BTB Domain Containing 7A) proteins were maintained in low attachment flasks in StemSpan SFEM II media supplemented with Penicillin-Streptomycin (50 U/mL), rhSCF (50 ng/mL), rhEPO (3 IU/mL), dexamethasone (0.4 μg/mL) and doxycycline (1 μg/mL). Prior to start of the assay, cell count and viability were measured by trypan blue exclusion using the Vi-cell XR cell viability analyzer. For the HUDEP-2 WIZ HiBiT assay, cells were transferred to a 50 mL conical and centrifuged at 500 g for five minutes. Cells were resuspended in fresh StemSpan SFEM II media supplemented with Penicillin-Streptomycin (50 U/mL), rhSCF (50 ng/mL), rhEPO (3 IU/mL), dexamethasone (0.4 μg/mL) and doxycycline (1 μg/mL) at a density of 1.0×10^6 cells/ml. Forty microliters of cell suspension was dispensed into 384-well Low Flange White Flat Bottom Polystyrene TC-treated Microplates containing pre-dispensed compounds, using a VIAFLO 384 liquid hander, and placed in a 37° C. incubator with 5% CO2. […] After 24 hours of treatment, 40 μL Nano-Glo HiBiT Lytic Detection System reagent was dispensed into each well using a VIAFLO 384 liquid hander. Plates were incubated for 25 minutes at room temperature and the luminescence was read as relative luminescent units using the EnVision plate reader. EC50 and Y-min values were calculated using curves calculated from dotmatics software after the normalization to the DMSO control of 10 different concentrations: 10, 3.33, 1.11, 0.37, 0.12, 0.04 0.0137, 0.0046, 0.0015 and 0.0005 μM respectively.

[3] = molecular target: ZBTB7A (Zinc Finger And BTB Domain Containing 7A) (Homo sapiens (Human), UniProt O95365+Q96SW2); test: HUDEP-2 ZBTB7A HiBiT degradation assay; conditions: HUDEP-2 ZBTB7A HiBiT cells, 24 hours treatment, luminescence; for DC50: read-out: ZBTB7A EC50
ZBTB7A (Zinc Finger And BTB Domain Containing 7A), sequence (O95365 whole entry, the tested form may be a part): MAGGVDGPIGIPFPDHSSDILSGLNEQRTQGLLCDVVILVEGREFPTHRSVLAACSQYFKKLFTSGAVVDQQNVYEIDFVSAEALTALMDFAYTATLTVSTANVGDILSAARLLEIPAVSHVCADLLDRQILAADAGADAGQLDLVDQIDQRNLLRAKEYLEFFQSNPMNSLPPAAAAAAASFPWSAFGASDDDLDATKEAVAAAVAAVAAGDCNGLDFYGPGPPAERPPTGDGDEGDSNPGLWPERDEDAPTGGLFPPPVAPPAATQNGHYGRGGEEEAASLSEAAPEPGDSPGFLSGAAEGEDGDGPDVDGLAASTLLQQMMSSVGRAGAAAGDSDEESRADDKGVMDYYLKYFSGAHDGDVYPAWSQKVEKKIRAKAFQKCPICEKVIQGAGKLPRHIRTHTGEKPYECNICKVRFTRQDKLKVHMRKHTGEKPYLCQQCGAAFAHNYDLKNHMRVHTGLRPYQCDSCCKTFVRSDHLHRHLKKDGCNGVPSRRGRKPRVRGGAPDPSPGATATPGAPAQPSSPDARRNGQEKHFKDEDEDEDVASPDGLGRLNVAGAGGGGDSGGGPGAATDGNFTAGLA
ZBTB7A (Zinc Finger And BTB Domain Containing 7A), sequence (Q96SW2 whole entry, the tested form may be a part): as the sequence (Q96SW2 whole entry, the tested form may be a part) above
ZBTB7A (Zinc Finger And BTB Domain Containing 7A), sequence (Q16531 whole entry partner, the tested form may be a part): as the sequence (Q16531 whole entry partner, the tested form may be a part) above
Protocol: as §1
For the HUDEP-2 ZBTB7A HiBiT assay, cell count and viability were measured by trypan blue exclusion using the Vi-cell XR cell viability analyzer and the cells were transferred to a 50 mL conical and centrifuged at 500 g for five minutes. Cells were resuspended in fresh IMDM media supplemented with L-Glutamine (1×), Penicillin-Streptomycin (50 U/mL), holo-transferrin (330 μg/mL), heparin (2 IU/mL), r-human Insulin (10 μg/mL), rhEPO (3 IU/mL), rhSCF (100 ng/mL)+Dox (1 μg/mL) and 5% human plasma in low attachment flasks, which were placed in a 37° C. incubator with 5% CO2. After 48 hours, cell count and viability were measured by trypan blue exclusion using the Vi-cell XR cell viability analyzer. The HUDEP-2 ZBTB7A cells were transferred to a 50 mL conical, centrifuged at 500 g for five minutes and resuspended at a density of 1.0×10^6 cells/ml in IMDM media supplemented with L-Glutamine (1×), Penicillin-Streptomycin (50 U/mL), holo-transferrin (330 μg/mL), heparin (2 IU/mL), r-human Insulin (10 μg/mL), rhEPO (3 IU/mL), rhSCF (100 ng/mL)+Dox (1 μg/mL) and 5% human plasma. Forty microliters of cell suspension was dispensed into 384-well Low Flange White Flat Bottom Polystyrene TC-treated Microplates containing pre-dispensed compounds, using a VIAFLO 384 liquid hander, and placed in a 37° C. incubator with 5% CO2. […] After 24 hours of treatment, 40 μL Nano-Glo HiBiT Lytic Detection System reagent was dispensed into each well using a VIAFLO 384 liquid hander. Plates were incubated for 25 minutes at room temperature and the luminescence was read as relative luminescent units using the EnVision plate reader. EC50 and Y-min values were calculated using curves calculated from dotmatics software after the normalization to the DMSO control of 10 different concentrations: 10, 3.33, 1.11, 0.37, 0.12, 0.04 0.0137, 0.0046, 0.0015 and 0.0005 μM respectively.

COc1ccc(-c2cc3c(cnn3C)cc2Nc2cccc3c2C(=O)N(C2CCC(=O)NC2=O)C3=O)cc1F (stereo not drawn) [Compound 14, 2-(2,6-dioxopiperidin-3-yl)-4-((6-(3-fluoro-4-methoxyphenyl)-1-methyl-1H-indazol-5-yl)amino)isoindoline-1,3-dione]
activation at 1 µM [1]: 66 to 100%
DC50 [2]: > 100 nM
EC50 [3]: > 100 nM

Cn1ncc2cc(Nc3cccc4c3C(=O)N(C3CCC(=O)NC3=O)C4=O)c(Oc3ccccc3)cc21 (stereo not drawn) [Compound 15, 2-(2,6-dioxopiperidin-3-yl)-4-((1-methyl-6-phenoxy-1H-indazol-5-yl)amino)isoindoline-1,3-dione]
activation at 1 µM [1]: 66 to 100%
EC50 [2]: < 10 nM
DC50 [3]: 30 to 100 nM

O=C1CCC(N2C(=O)c3cccc(Nc4cc5cnn(C6CCOCC6)c5cc4Oc4cccc(F)c4)c3C2=O)C(=O)N1 (stereo not drawn) [Compound 16, 2-(2,6-dioxopiperidin-3-yl)-4-((6-(3-fluorophenoxy)-1-(tetrahydro-2H-pyran-4-yl)-1H-indazol-5-yl)amino)isoindoline-1,3-dione]
activation at 1 µM [1]: 66 to 100%
EC50 [2]: < 10 nM
EC50 [3]: > 100 nM

Cn1ncc2cc(Nc3cccc4c3C(=O)N(C3CCC(=O)NC3=O)C4=O)c(Oc3ccc(F)cc3)cc21 (stereo not drawn) [Compound 17, 2-(2,6-dioxopiperidin-3-yl)-4-((6-(4-fluorophenoxy)-1-methyl-1H-indazol-5-yl)amino)isoindoline-1,3-dione]
activation at 1 µM [1]: 66 to 100%
DC50 [2]: 10 to 100 nM
DC50 [3]: 30 to 100 nM

COc1cc2c(cnn2C2CCOCC2)cc1Nc1cccc2c1C(=O)N(C1CCC(=O)NC1=O)C2=O (stereo not drawn) [Compound 18, 2-(2,6-dioxopiperidin-3-yl)-4-((6-methoxy-1-(tetrahydro-2H-pyran-4-yl)-1H-indazol-5-yl)amino)isoindoline-1,3-dione]
activation at 1 µM [1]: 66 to 100%
EC50 [2]: < 10 nM
DC50 [3]: 30 to 100 nM

Cc1cc(-c2cc3c(cnn3C)cc2Nc2cccc3c2C(=O)N(C2CCC(=O)NC2=O)C3=O)ccn1 (stereo not drawn) [Compound 19, 2-(2,6-dioxopiperidin-3-yl)-4-((1-methyl-6-(2-methylpyridin-4-yl)-1H-indazol-5-yl)amino)isoindoline-1,3-dione]
activation at 1 µM [1]: 66 to 100%
DC50 [2]: > 100 nM
EC50 [3]: > 100 nM

Cc1c(Nc2cccc3c2C(=O)N(C2CCC(=O)NC2=O)C3=O)ccc2c1cnn2C1CCOCC1 (stereo not drawn) [Compound 20, 2-(2,6-dioxopiperidin-3-yl)-4-((4-methyl-1-(tetrahydro-2H-pyran-4-yl)-1H-indazol-5-yl)amino)isoindoline-1,3-dione]
activation at 1 µM [1]: 33 to 66%
EC50 [2]: < 10 nM
EC50 [3]: > 100 nM

Cc1cc(Oc2ccccc2)c(Nc2cccc3c2C(=O)N(C2CCC(=O)NC2=O)C3=O)cn1 (stereo not drawn) [Compound 21, 2-(2,6-dioxopiperidin-3-yl)-4-((6-methyl-4-phenoxypyridin-3-yl)amino)isoindoline-1,3-dione]
activation at 1 µM [1]: 33 to 66%
EC50 [2]: < 10 nM
DC50 [3]: 30 to 100 nM

Cn1ncc2cc(Nc3cccc4c3C(=O)N(C3CCC(=O)NC3=O)C4=O)c(C3CCOCC3)cc21 (stereo not drawn) [Compound 22, 2-(2,6-dioxopiperidin-3-yl)-4-((1-methyl-6-(tetrahydro-2H-pyran-4-yl)-1H-indazol-5-yl)amino)isoindoline-1,3-dione]
activation at 1 µM [1]: 33 to 66%
DC50 [2]: 10 to 100 nM
EC50 [3]: > 100 nM

Cc1cc(-c2cc3c(cc2Nc2cccc4c2C(=O)N(C2CCC(=O)NC2=O)C4=O)nc(C)n3C)ccn1 (stereo not drawn) [Compound 23, 4-((1,2-dimethyl-6-(2-methylpyridin-4-yl)-1H-benzo[d]imidazol-5-yl)amino)-2-(2,6-dioxopiperidin-3-yl)isoindoline-1,3-dione]
activation at 1 µM [1]: 33 to 66%
DC50 [2]: > 100 nM
EC50 [3]: > 100 nM

Cc1cc(-c2cc3c(cnn3C)cc2Nc2cccc3c2C(=O)N(C2CCC(=O)NC2=O)C3=O)cnn1 (stereo not drawn) [Compound 24, 2-(2,6-dioxopiperidin-3-yl)-4-((1-methyl-6-(6-methylpyridazin-4-yl)-1H-indazol-5-yl)amino)isoindoline-1,3-dione]
activation at 1 µM [1]: 33 to 66%
DC50 [2]: > 100 nM
EC50 [3]: > 100 nM

Cn1ncc2cc(Nc3cccc4c3C(=O)N(C3CCC(=O)NC3=O)C4=O)c(Oc3cccc(Cl)c3)cc21 (stereo not drawn) [Compound 25, 4-((6-(3-chlorophenoxy)-1-methyl-1H-indazol-5-yl)amino)-2-(2,6-dioxopiperidin-3-yl)isoindoline-1,3-dione]
activation at 1 µM [1]: 33 to 66%
DC50 [2]: 10 to 100 nM
EC50 [3]: > 100 nM
